Measurements reported in patent publication EP3634580B1, “COMPOSITIONS COMPRISING LACTULOSE FOR MAINTAINING OR IMPROVING GUT HEALTH IN HUMANS” (Fresenius Kabi Austria GmbH, priority 2017, dated 2018).

System: colon microbiota of human origin
Experiment: TIM-2 in vitro model of the proximal colon: ammonia production
Assay type: cell-based
Conditions: for ammonia production (in words): daily doses of 2 g, 3 g, 4 g, 5 g, 120 h test period, versus control; for Cumulative ammonia production: mean of n = 2
Method: Crystalline lactulose was administered daily for 5 days to the TNO Intestinal Model (TIM-2), an in vitro model of the proximal colon. NaOH consumption, short-chain fatty acids (SCFA) production, ammonia production as well as relative abundance of microbiota were analyzed.
The substance administered in this study was lactulose crystals (S.C.M. Società Chimica Mugello S.r.l., Vicchio, Italy). Experiments without the addition of lactulose served as negative control.
The TNO Intestinal Model (TIM-2) is a dynamic in vitro model of the proximal colon. The TIM-2 system was inoculated with a highly metabolically active colon microbiota of human origin. In the system the following standardized conditions were simulated: body temperature; pH in the lumen of the proximal colon (pH 5.8); delivery of a substrate from the 'ileum' (SIEM; Standardized Ileum Efflux Medium); mixing and transport of the intestinal contents; anaerobiosis; absorption of water and absorption of fermentation products, metabolites and other low molecular weight compounds (via a semipermeable membrane inside the colon model).
SIEM simulates material passing the ileocecal valve in humans. It contained the major non-digestible carbohydrates (pectin, xylan, arabinogalactan, amylopectin, starch) found in a normal western diet as well as protein (bactopepton, casein), ox-bile, Tween 80 as well as vitamins and minerals. SIEM was added to the system at a speed of 2.5 mL/h and the speed of the dialysis liquid was 1.5 mL/min. During the experiment, the intestinal contents were mixed continuously by the peristaltic movements of the TIM-2 system. In order to simulate the transit of the chime from proximal to distal colon, 25 mL of the lumen was removed every 24 h and discarded.
Before performing each experiment, the system was inoculated with a standardized microbiota of human origin. This standardized microbiota was prepared using fecal donations from a group of 4 healthy volunteers (3 females, 1 male, age 38.8 ± 3.9 years; BMI (body mass index) 24.2 ± 1.5 kg/m^2). Individuals provided signed informed consent before participation, were non-smokers and had not used antibiotics, prebiotics, probiotics or laxatives within 1 month before the stool donation.
At the start of the adaptation period the microbiota was allowed to adapt to the model conditions and SIEM for 16 h. After the adaptation period the 120 h test period started in which lactulose was added to TIM-2 once daily.
Lactulose was added to the system at daily doses of 2 g, 3 g, 4 g, and 5 g lactulose. Each dose as well as the control experiment was studied in duplicate (n = 2). The test period of the TIM-2 experiments lasted 120 h (5 consecutive days).
Metabolites like the short-chain fatty acids (SCFA) and ammonia produced in TIM-2 were continuously removed from the lumen by a semipermeable membrane unit. This dialysate was collected at the start of the test period and after 24, 48, 72, 96, and 120 h.
Samples for ammonia analysis were centrifuged as described above. Ammonia was determined based on the Berthelot reaction.

SMILES: OC[C@H]1O[C@@H](O[C@@H]2[C@@H](CO)OC(O)(CO)[C@H]2O)[C@H](O)[C@@H](O)[C@H]1O (mixture of isomers) [Lactulose, lactulose]
- ammonia production (in words): decreased the levels
- ammonia production (in words) (listed as lactulose): decreased mean ammonia production
- Cumulative ammonia production (lactulose 2 g daily, 0 h, control 0): 0 mmol
- Cumulative ammonia production (lactulose 2 g daily, 24 h, control 10): 9 mmol
- Cumulative ammonia production (lactulose 2 g daily, 48 h, control 31): 29 mmol
- Cumulative ammonia production (lactulose 2 g daily, 72 h, control 55): 48 mmol
- Cumulative ammonia production (lactulose 2 g daily, 96 h, control 82): 68 mmol
- Cumulative ammonia production (lactulose 2 g daily, 120 h, control 108): 88 mmol
- Cumulative ammonia production (lactulose 3 g daily, 0 h, control 0): 0 mmol
- Cumulative ammonia production (lactulose 3 g daily, 24 h, control 10): 9 mmol
- Cumulative ammonia production (lactulose 3 g daily, 48 h, control 31): 26 mmol
- Cumulative ammonia production (lactulose 3 g daily, 72 h, control 55): 45 mmol
- Cumulative ammonia production (lactulose 3 g daily, 96 h, control 82): 64 mmol
- Cumulative ammonia production (lactulose 3 g daily, 120 h, control 108): 85 mmol
- Cumulative ammonia production (lactulose 4 g daily, 0 h, control 0): 0 mmol
- Cumulative ammonia production (lactulose 4 g daily, 24 h, control 10): 6 mmol
- Cumulative ammonia production (lactulose 4 g daily, 48 h, control 31): 15 mmol
- Cumulative ammonia production (lactulose 4 g daily, 72 h, control 55): 25 mmol
- Cumulative ammonia production (lactulose 4 g daily, 96 h, control 82): 38 mmol
- Cumulative ammonia production (lactulose 4 g daily, 120 h, control 108): 51 mmol
- Cumulative ammonia production (lactulose 5 g daily, 0 h, control 0): 0 mmol
- Cumulative ammonia production (lactulose 5 g daily, 24 h, control 10): 5 mmol
- Cumulative ammonia production (lactulose 5 g daily, 48 h, control 31): 12 mmol
- Cumulative ammonia production (lactulose 5 g daily, 72 h, control 55): 22 mmol
- Cumulative ammonia production (lactulose 5 g daily, 96 h, control 82): 32 mmol
- Cumulative ammonia production (lactulose 5 g daily, 120 h, control 108): 41 mmol
